Earlier results, collected in patent publication US8968710B1, “Topical anesthetic” (priority 2005, dated 2015).

**Q.** What does the source list for `CCCCNc1ccc(C(=O)OCCN(C)C)cc1` [Tetracaine]?
**A.** solubility in alcohol, ether, benzene and chloroform (alcohol, ether, benzene, chloroform): soluble; solubility in water (water): very slightly soluble
